# Experimental data published in patent publication US20170045529A1, “METHODS OF MEASURING ANTIGEN-SPECIFIC T CELLS” (ImmusanT, Inc., priority 2014, published 2017).
# Non-standard residues stand in square brackets, D forms with d. pGlu = O=C1CC[C@@H](C(=O)O)N1
# Legend:
# Type in all cases: cell-based, human
# whole blood [1] = assay: Whole blood IFN-γ release to peptide pools and individual peptides, MAGPIX multiplex bead assay (Example 3); details: 10 uM
# whole blood [2] = assay: Whole blood IL-2 release to peptide pools and individual peptides, MAGPIX multiplex bead assay (Example 3); details: 10 uM
# whole blood [3] = assay: Whole blood IP-10 release to peptide pools and individual peptides, MAGPIX multiplex bead assay (Example 3); details: Table 10C, 10 uM
# [4] = Subject 1 (HLA-DQ 2.5, 8), day 0 of oral challenge
# [5] = Subject 1 (HLA-DQ 2.5, 8), day 6 of oral challenge
# [6] = Subject 2 (HLA-DQ 2.5, 8), day 0 of oral challenge
# [7] = Subject 2 (HLA-DQ 2.5, 8), day 6 of oral challenge
# [8] = Subject 6 (HLA-DQ 2.5), day 0 of oral challenge
# [9] = Subject 6 (HLA-DQ 2.5), day 6 of oral challenge
# [10] = Subject 7 (HLA-DQ 2.5, 8), day 0 of oral challenge
# [11] = Subject 7 (HLA-DQ 2.5, 8), day 6 of oral challenge
# [12] = Subject 1, day 0 since commencing oral challenge
# [13] = Subject 1, day 6 since commencing oral challenge
# [14] = Subject 2, day 0 since commencing oral challenge
# [15] = Subject 2, day 6 since commencing oral challenge
# [16] = Subject 6, day 0 since commencing oral challenge
# [17] = Subject 6, day 6 since commencing oral challenge
# [18] = Subject 7, day 0 since commencing oral challenge
# [19] = Subject 7, day 6 since commencing oral challenge
substance,measurement,setting,value
(pE)QPFPQPEQPFPWQP-NH2 ([pGlu]QPFPQPEQPFPWQP-NH2; SMILES NC(=O)CC[C@H](NC(=O)[C@H](Cc1c[nH]c2ccccc12)NC(=O)[C@@H]1CCCN1C(=O)[C@H](Cc1ccccc1)NC(=O)[C@@H]1CCCN1C(=O)[C@H](CCC(N)=O)NC(=O)[C@H](CCC(=O)O)NC(=O)[C@@H]1CCCN1C(=O)[C@H](CCC(N)=O)NC(=O)[C@@H]1CCCN1C(=O)[C@H](Cc1ccccc1)NC(=O)[C@@H]1CCCN1C(=O)[C@H](CCC(N)=O)NC(=O)[C@@H]1CCC(=O)N1)C(=O)N1CCC[C@H]1C(N)=O),"Whole blood IFNg release, Concentration",whole blood [1]; [4],60 pg/mL
same,"Whole blood IFNg release, Fold-change over medium only",whole blood [1]; [4],1.09
same,"Whole blood IFNg release, Concentration",whole blood [1]; [5],62 pg/mL
same,"Whole blood IFNg release, Fold-change over medium only",whole blood [1]; [5],0.95
same,"Whole blood IFNg release, Concentration",whole blood [1]; [6],4.5 pg/mL
same,"Whole blood IFNg release, Fold-change over medium only",whole blood [1]; [6],1.19
same,"Whole blood IFNg release, Concentration",whole blood [1]; [7],6.4 pg/mL
same,"Whole blood IFNg release, Fold-change over medium only",whole blood [1]; [7],1.32
same,"Whole blood IFNg release, Concentration",whole blood [1]; [8],94 pg/mL
same,"Whole blood IFNg release, Fold-change over medium only",whole blood [1]; [8],0.98
same,"Whole blood IFNg release, Concentration",whole blood [1]; [9],258 pg/mL
same,"Whole blood IFNg release, Fold-change over medium only",whole blood [1]; [9],2.63
same,"Whole blood IFNg release, Concentration",whole blood [1]; [10],158 pg/mL
same,"Whole blood IFNg release, Fold-change over medium only",whole blood [1]; [10],0.66
same,"Whole blood IFNg release, Concentration",whole blood [1]; [11],150 pg/mL
same,"Whole blood IFNg release, Fold-change over medium only",whole blood [1]; [11],1.00
same,"Whole blood IL-2 release, Concentration",whole blood [2]; [4],3.2 pg/mL
same,"Whole blood IL-2 release, Fold-change over medium only",whole blood [2]; [4],1.00
same,"Whole blood IL-2 release, Concentration",whole blood [2]; [5],3.2 pg/mL
same,"Whole blood IL-2 release, Fold-change over medium only",whole blood [2]; [5],1.00
same,"Whole blood IL-2 release, Concentration",whole blood [2]; [6],3.2 pg/mL
same,"Whole blood IL-2 release, Fold-change over medium only",whole blood [2]; [6],1.00
same,"Whole blood IL-2 release, Concentration",whole blood [2]; [7],5.2 pg/mL
same,"Whole blood IL-2 release, Fold-change over medium only",whole blood [2]; [7],1.61
same,"Whole blood IL-2 release, Concentration",whole blood [2]; [8],17.9 pg/mL
same,"Whole blood IL-2 release, Fold-change over medium only",whole blood [2]; [8],3.62
same,"Whole blood IL-2 release, Concentration",whole blood [2]; [9],115.9 pg/mL
same,"Whole blood IL-2 release, Fold-change over medium only",whole blood [2]; [9],27.33
same,"Whole blood IL-2 release, Concentration",whole blood [2]; [10],41.4 pg/mL
same,"Whole blood IL-2 release, Fold-change over medium only",whole blood [2]; [10],0.66
same,"Whole blood IL-2 release, Concentration",whole blood [2]; [11],55.1 pg/mL
same,"Whole blood IL-2 release, Fold-change over medium only",whole blood [2]; [11],1.31
same,"Whole blood IP-10 release, Concentration",whole blood [3]; [12],218 pg/mL
same,"Whole blood IP-10 release, Fold-change over medium only",whole blood [3]; [12],0.82
same,"Whole blood IP-10 release, Concentration",whole blood [3]; [13],501 pg/mL
same,"Whole blood IP-10 release, Fold-change over medium only",whole blood [3]; [13],1.49
same,"Whole blood IP-10 release, Concentration",whole blood [3]; [14],376 pg/mL
same,"Whole blood IP-10 release, Fold-change over medium only",whole blood [3]; [14],1.42
same,"Whole blood IP-10 release, Concentration",whole blood [3]; [15],1140 pg/mL
same,"Whole blood IP-10 release, Fold-change over medium only",whole blood [3]; [15],3.65
same,"Whole blood IP-10 release, Concentration",whole blood [3]; [16],1934 pg/mL
same,"Whole blood IP-10 release, Fold-change over medium only",whole blood [3]; [16],6.98
same,"Whole blood IP-10 release, Concentration",whole blood [3]; [17],10000 pg/mL
same,"Whole blood IP-10 release, Fold-change over medium only",whole blood [3]; [17],49.76
same,"Whole blood IP-10 release, Concentration",whole blood [3]; [18],900 pg/mL
same,"Whole blood IP-10 release, Fold-change over medium only",whole blood [3]; [18],1.21
same,"Whole blood IP-10 release, Concentration",whole blood [3]; [19],10000 pg/mL
same,"Whole blood IP-10 release, Fold-change over medium only",whole blood [3]; [19],11.21
(pE)LQPFPQPELPYPQPQ-NH2 ([pGlu]LQPFPQPELPYPQPQ-NH2; SMILES CC(C)C[C@H](NC(=O)[C@@H]1CCC(=O)N1)C(=O)N[C@@H](CCC(N)=O)C(=O)N1CCC[C@H]1C(=O)N[C@@H](Cc1ccccc1)C(=O)N1CCC[C@H]1C(=O)N[C@@H](CCC(N)=O)C(=O)N1CCC[C@H]1C(=O)N[C@@H](CCC(=O)O)C(=O)N[C@@H](CC(C)C)C(=O)N1CCC[C@H]1C(=O)N[C@@H](Cc1ccc(O)cc1)C(=O)N1CCC[C@H]1C(=O)N[C@@H](CCC(N)=O)C(=O)N1CCC[C@H]1C(=O)N[C@@H](CCC(N)=O)C(N)=O),"Whole blood IFNg release, Concentration",whole blood [1]; [4],39 pg/mL
same,"Whole blood IFNg release, Fold-change over medium only",whole blood [1]; [4],0.71
same,"Whole blood IFNg release, Concentration",whole blood [1]; [5],55 pg/mL
same,"Whole blood IFNg release, Fold-change over medium only",whole blood [1]; [5],0.84
same,"Whole blood IFNg release, Concentration",whole blood [1]; [6],4.1 pg/mL
same,"Whole blood IFNg release, Fold-change over medium only",whole blood [1]; [6],1.06
same,"Whole blood IFNg release, Concentration",whole blood [1]; [7],13.9 pg/mL
same,"Whole blood IFNg release, Fold-change over medium only",whole blood [1]; [7],2.85
same,"Whole blood IFNg release, Concentration",whole blood [1]; [8],102 pg/mL
same,"Whole blood IFNg release, Fold-change over medium only",whole blood [1]; [8],1.05
same,"Whole blood IFNg release, Concentration",whole blood [1]; [9],200 pg/mL
same,"Whole blood IFNg release, Fold-change over medium only",whole blood [1]; [9],2.03
same,"Whole blood IFNg release, Concentration",whole blood [1]; [10],407 pg/mL
same,"Whole blood IFNg release, Fold-change over medium only",whole blood [1]; [10],1.71
same,"Whole blood IFNg release, Concentration",whole blood [1]; [11],194 pg/mL
same,"Whole blood IFNg release, Fold-change over medium only",whole blood [1]; [11],1.29
same,"Whole blood IL-2 release, Concentration",whole blood [2]; [4],3.2 pg/mL
same,"Whole blood IL-2 release, Fold-change over medium only",whole blood [2]; [4],1.00
same,"Whole blood IL-2 release, Concentration",whole blood [2]; [5],3.2 pg/mL
same,"Whole blood IL-2 release, Fold-change over medium only",whole blood [2]; [5],1.00
same,"Whole blood IL-2 release, Concentration",whole blood [2]; [6],3.2 pg/mL
same,"Whole blood IL-2 release, Fold-change over medium only",whole blood [2]; [6],1.00
same,"Whole blood IL-2 release, Concentration",whole blood [2]; [7],12.2 pg/mL
same,"Whole blood IL-2 release, Fold-change over medium only",whole blood [2]; [7],3.82
same,"Whole blood IL-2 release, Concentration",whole blood [2]; [8],12.5 pg/mL
same,"Whole blood IL-2 release, Fold-change over medium only",whole blood [2]; [8],2.52
same,"Whole blood IL-2 release, Concentration",whole blood [2]; [9],88.5 pg/mL
same,"Whole blood IL-2 release, Fold-change over medium only",whole blood [2]; [9],20.88
same,"Whole blood IL-2 release, Concentration",whole blood [2]; [10],144.4 pg/mL
same,"Whole blood IL-2 release, Fold-change over medium only",whole blood [2]; [10],2.30
same,"Whole blood IL-2 release, Concentration",whole blood [2]; [11],71.2 pg/mL
same,"Whole blood IL-2 release, Fold-change over medium only",whole blood [2]; [11],1.69
same,"Whole blood IP-10 release, Concentration",whole blood [3]; [12],201 pg/mL
same,"Whole blood IP-10 release, Fold-change over medium only",whole blood [3]; [12],0.76
same,"Whole blood IP-10 release, Concentration",whole blood [3]; [13],384 pg/mL
same,"Whole blood IP-10 release, Fold-change over medium only",whole blood [3]; [13],1.15
same,"Whole blood IP-10 release, Concentration",whole blood [3]; [14],320 pg/mL
same,"Whole blood IP-10 release, Fold-change over medium only",whole blood [3]; [14],1.20
same,"Whole blood IP-10 release, Concentration",whole blood [3]; [15],1844 pg/mL
same,"Whole blood IP-10 release, Fold-change over medium only",whole blood [3]; [15],5.90
same,"Whole blood IP-10 release, Concentration",whole blood [3]; [16],1616 pg/mL
same,"Whole blood IP-10 release, Fold-change over medium only",whole blood [3]; [16],5.83
same,"Whole blood IP-10 release, Concentration",whole blood [3]; [17],10000 pg/mL
same,"Whole blood IP-10 release, Fold-change over medium only",whole blood [3]; [17],49.76
same,"Whole blood IP-10 release, Concentration",whole blood [3]; [18],977 pg/mL
same,"Whole blood IP-10 release, Fold-change over medium only",whole blood [3]; [18],1.32
same,"Whole blood IP-10 release, Concentration",whole blood [3]; [19],3293 pg/mL
same,"Whole blood IP-10 release, Fold-change over medium only",whole blood [3]; [19],3.69
